Assays:
Assay type in all cases: in vivo
Amaranthus retroflexus [1] = test: Post-emergence herbicidal action; settings: 320 g/ha, rated after about 3 weeks, 100% = plants have died, 0% = like control plants
Protocol: (§1) Seeds of monocotyledonous and dicotyledonous weeds and crop plants were placed in sandy loam in plastic or wood-fiber pots, covered with soil and cultivated in a greenhouse under controlled growth conditions. 2 to 3 weeks after sowing, the test plants were treated at the one-leaf stage. The compounds of the invention, formulated in the form of wettable powders (WP) or as emulsion concentrates (EC), were then sprayed onto the green parts of the plants as aqueous suspension or emulsion with addition of 0.5% additive at a water application rate of 600 l/ha (converted). After the test plants had been kept in the greenhouse under optimum growth conditions for about 3 weeks, the activity of the preparations was rated visually in comparison to untreated controls. For example, 100% activity=the plants have died, 0% activity=like control plants. Tables B1 to B6 below show the effects of selected compounds of the general formula (I) according to Table A1 at an application rate of 320 g/ha on various harmful plants, which were obtained by the aforementioned experimental procedure.

Ipomoea purpurea = test: Post-emergence herbicidal action; settings: 320 g/ha, rated after about 3 weeks, 100% = plants have died, 0% = like control plants
Protocol: as §1

Matricaria inodora [2] = test: Post-emergence herbicidal action; settings: 320 g/ha, rated after about 3 weeks, 100% = plants have died, 0% = like control plants
Protocol: as §1

Stellaria media [3] = test: Post-emergence herbicidal action; settings: 320 g/ha, rated after about 3 weeks, 100% = plants have died, 0% = like control plants
Protocol: as §1

Viola tricolor [4] = test: Post-emergence herbicidal action; settings: 320 g/ha, rated after about 3 weeks, 100% = plants have died, 0% = like control plants
Protocol: as §1

Amaranthus retroflexus [5] = test: Pre-emergence herbicidal action; settings: 320 g/ha, scored after about 3 weeks, 100% = plants have died, 0% = like control plants
Excerpt: (§2) Seeds of monocotyledonous and dicotyledonous weed plants and crop plants were placed in plastic or wood-fiber pots and covered with soil. The compounds of the invention, formulated in the form of wettable powders (WP) or as emulsion concentrates (EC), were then applied to the surface of the covering soil as aqueous suspension or emulsion with addition of 0.5% additive at a water application rate equivalent to 600 l/ha. After the treatment, the pots were placed in a greenhouse and kept under good growth conditions for the test plants. After about 3 weeks, the effect of the preparations is scored visually in comparison with untreated controls as percentages. For example, 100% activity=the plants have died, 0% activity=like control plants. Tables B7 to B11 below show the effects of selected compounds of the general formula (I) according to Table A1 at an application rate of 320 g/ha on various harmful plants, which were obtained by the aforementioned experimental procedure.

Matricaria inodora [6] = test: Pre-emergence herbicidal action; settings: 320 g/ha, scored after about 3 weeks, 100% = plants have died, 0% = like control plants
Excerpt: as §2

Stellaria media [7] = test: Pre-emergence herbicidal action; settings: 320 g/ha, scored after about 3 weeks, 100% = plants have died, 0% = like control plants
Excerpt: as §2

Veronica persica = test: Pre-emergence herbicidal action; settings: 320 g/ha, scored after about 3 weeks, 100% = plants have died, 0% = like control plants
Excerpt: as §2

Viola tricolor [8] = test: Pre-emergence herbicidal action; settings: 320 g/ha, scored after about 3 weeks, 100% = plants have died, 0% = like control plants
Excerpt: as §2

Row | Structure (SMILES) | herbicidal activity on Amaranthus retroflexus (visual rating vs untreated controls) (Amaranthus retroflexus [1]) | herbicidal activity on Ipomoea purpurea (visual rating vs untreated controls) (Ipomoea purpurea) | herbicidal activity on Matricaria inodora (visual rating vs untreated controls) (Matricaria inodora [2]) | herbicidal activity on Stellaria media (visual rating vs untreated controls) (Stellaria media [3]) | herbicidal activity on Viola tricolor (visual rating vs untreated controls) (Viola tricolor [4]) | herbicidal activity on Amaranthus retroflexus (visual rating vs untreated controls) (Amaranthus retroflexus [5]) | herbicidal activity on Matricaria inodora (visual rating vs untreated controls) (Matricaria inodora [6]) | herbicidal activity on Stellaria media (visual rating vs untreated controls) (Stellaria media [7]) | herbicidal activity on Veronica persica (visual rating vs untreated controls) (Veronica persica) | herbicidal activity on Viola tricolor (visual rating vs untreated controls) (Viola tricolor [8])
1 | Cc1nn(C)c(-c2ccc(F)cc2Cl)c1C(=O)Nc1cccc(Cl)c1 [I-001] | 100% | 100% | 90% | 100% | 100% | 100% | 100% | 100% | 100% | 
2 | Cc1nn(C)c(-c2ccc(F)cc2Cl)c1C(=O)Nc1ccccc1 [I-002] | 100% | 80% | 100% | 100% | 100% | 100% | 100% | 100% |  | 100%
3 | Cc1nn(C)c(-c2ccc(F)cc2Cl)c1C(=O)NC1CCCC1 [I-003] | 100% |  |  |  |  |  | 90% | 80% |  | 
4 | Cc1nn(C)c(-c2ccc(F)cc2Cl)c1C(=O)Nc1ccccc1F [I-006] | 100% |  |  | 100% | 100% | 100% | 90% | 100% |  | 100%
5 | Cc1nn(C)c(-c2ccc(F)cc2Cl)c1C(=O)Nc1ccc(F)cc1 [I-007] | 100% |  |  | 80% |  | 90% |  | 100% |  | 
6 | Cc1ccc(Cl)cc1NC(=O)c1c(C)nn(C)c1-c1ccc(F)cc1Cl [I-009] | 100% | 100% | 100% | 100% | 100% | 100% | 100% | 100% | 100% | 
7 | Cc1cccnc1NC(=O)c1c(C)nn(C)c1-c1ccc(F)cc1Cl [I-010] | 100% |  |  | 100% | 100% | 100% | 100% |  |  | 
8 | Cc1nn(C)c(-c2ccc(F)cc2Cl)c1C(=O)Nc1ncccc1F [I-011] | 90% |  |  | 80% |  | 80% |  | 80% |  | 
9 | Cc1nn(C)c(-c2ccc(F)cc2Cl)c1C(=O)Nc1c(Cl)cccc1Cl [I-013] | 100% | 100% | 100% | 100% | 100% | 100% | 100% | 100% | 100% | 
10 | Cc1nn(C)c(-c2cc(F)ccc2Cl)c1C(=O)Nc1c(Cl)cccc1Cl [I-014] | 80% |  |  | 90% | 100% |  |  |  |  | 
11 | Cc1nn(C)c(-c2ccc(F)cc2Cl)c1C(=O)Nc1cc(Cl)ccc1Cl [I-017] | 100% |  |  | 100% | 90% | 100% | 80% |  |  | 
12 | Cc1nn(C)c(-c2ccc(F)cc2Cl)c1C(=O)NC1CCCCC1 [I-018] | 80% |  |  |  |  |  |  |  |  | 
13 | Cc1nn(C)c(-c2ccc(F)cc2Cl)c1C(=O)Nc1cc(Cl)cc(Cl)c1 [I-020] | 100% |  |  |  | 100% | 100% | 100% | 90% |  | 80%
14 | Cc1nn(C)c(-c2ccc(F)cc2Cl)c1C(=O)Nc1cc(Cl)ccc1F [I-021] | 100% |  |  | 100% | 100% | 100% | 100% | 100% |  | 100%
15 | Cc1nn(C)c(-c2ccc(F)cc2Cl)c1C(=O)Nc1ccc(F)nc1 [I-023] | 90% |  |  | 100% |  |  | 90% | 100% |  | 
16 | Cc1nn(C)c(-c2ccc(F)cc2Cl)c1C(=O)Nc1ccc(Cl)cc1 [I-024] | 100% |  |  | 100% | 100% |  |  |  |  | 
17 | Cc1nn(C)c(-c2ccc(F)cc2Cl)c1C(=O)Nc1c(F)cc(F)cc1F [I-025] | 100% | 80% | 100% | 90% | 100% | 100% | 100% | 100% |  | 100%
18 | CCn1nc(C)c(C(=O)Nc2c(Cl)cccc2Cl)c1-c1ccc(F)cc1Cl [I-026] | 90% |  |  |  | 80% |  |  |  |  | 
19 | Cc1nn(C)c(-c2ccc(F)cc2Cl)c1C(=O)Nc1cccnc1F [I-031] | 100% |  |  | 100% | 100% | 100% | 100% | 90% |  | 80%
20 | Cc1nn(C)c(-c2ccc(F)cc2Cl)c1C(=O)Nc1cncc(F)c1 [I-032] | 100% | 90% | 100% | 100% | 100% | 100% | 100% |  |  | 
21 | Cc1nn(C)c(-c2ccc(F)cc2)c1C(=O)Nc1c(Cl)cccc1Cl [I-033] | 80% |  |  |  | 80% |  |  |  |  | 

Source: US20200172491A1, “SUBSTITUTED 5-(HET-)ARYLPYRAZOLAMIDES AND SALTS THEREOF AND THEIR USE AS HERBICIDAL ACTIVE SUBSTANCES” (Bayer CropScience Aktiengesellschaft, priority 2017, published 2020)
